Target: Human recombinant Histone Deacetylase 8 (HDAC8) (Homo sapiens (Human), UniProt Q9BY41)
Test: HDAC8 Enzymatic Assay (HDAC-Glo I/II luminescence)
Format: biochemical
Conditions: HDAC8; read-out: IC50
Procedure, shortened: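 Human recombinant HDAC8 (1.5 nM final) preincubated with compound for 30 min, then reacted with 50 μM Boc-GAK(Ac)-aminoluciferin plus trypsin-containing developer for 15 min at room temperature, pH 8.0, 0.5% DMSO. Luminescence read-out; IC50 from percent control activity versus log concentration.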

Sequence of Human recombinant Histone Deacetylase 8 (HDAC8) (Q9BY41 whole entry): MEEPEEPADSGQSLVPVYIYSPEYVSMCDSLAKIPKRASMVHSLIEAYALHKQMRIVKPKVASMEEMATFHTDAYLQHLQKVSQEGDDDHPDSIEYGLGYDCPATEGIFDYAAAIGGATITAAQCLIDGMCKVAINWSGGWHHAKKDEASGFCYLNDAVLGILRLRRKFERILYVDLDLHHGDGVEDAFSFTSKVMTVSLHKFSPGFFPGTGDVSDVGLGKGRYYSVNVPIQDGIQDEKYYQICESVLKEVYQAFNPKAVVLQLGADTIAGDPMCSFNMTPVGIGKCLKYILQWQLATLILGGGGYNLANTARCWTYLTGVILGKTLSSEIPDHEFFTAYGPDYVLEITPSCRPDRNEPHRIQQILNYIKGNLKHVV

IC50 [nM]	Compound
84	Cn1nc(C(Cc2ccccc2)C(=O)NO)c2ccc(-c3cncnc3)cc21 (stereo not drawn) [Compound I-0204, N-hydroxy-2-(1-methyl-6-pyrimidin-5-yl-1H-indazol-3-yl)-3-phenylpropanamide]
443	CCc1ccc2cnn(C(Cc3ccccc3)C(=O)NO)c2c1 (stereo not drawn) [Compound I-0018, 2-(6-Ethyl-1H-indazol-1-yl)-N-hydroxy-3-phenylpropanamide]
39	Cn1nc(C(Cc2ccccc2)C(=O)NO)c2ccc(Cl)cc21 (stereo not drawn) [Compound I-0202, 2-(6-Chloro-1-methyl-1H-indazol-3-yl)-N-hydroxy-3-phenylpropanamide]
16	O=C(NCCC1CCOCC1)c1cccc2c(C#CC3CC3)n(C(Cc3ccccc3)C(=O)NO)nc12 (stereo not drawn) [Compound I-0197, 2-[1-Benzyl-2-(hydroxyamino)-2-oxethyl]-3-(cyclopropylethynyl)-N-[2-(tetrahydro-2H-pyran-4-yl)ethyl]-2H-indazole-7-carboxamide]

Same assay, conditions: class symbols, Table 14; read-out: HDAC8 IC50

IC50 [nM]	Compound
> 500	O=C(NO)C(Cc1ccccc1)n1ccc2nc(Cl)ccc21 (stereo not drawn) [Compound I-0193, 2-(5-chloro-1H-pyrrolo[3,2-b]pyridin-1-yl)-N-hydroxy-3-phenylpropanamide]
≤ 50	NC(=O)c1cccc(-c2cccc3c(C#CC4CC4)n(C(Cc4ccccc4)C(=O)NO)nc23)c1 (stereo not drawn) [Compound I-0157, 3-(3-(cyclopropylethynyl)-2-(1-(hydroxyamino)-1-oxo-3-phenylpropan-2-yl)-2H-indazol-7-yl)benzamide]
50 to 200	Cn1nc(C(Cc2ccccc2)C(=O)NO)c2ccc(-c3cncnc3)cc21 (stereo not drawn) [Compound I-0204, N-hydroxy-2-(1-methyl-6-pyrimidin-5-yl-1H-indazol-3-yl)-3-phenylpropanamide]
> 500	O=C(NO)C(Cc1ccccc1)n1cc2cccc(C(=O)N3CCC4(CCOCC4)CC3)c2n1 (stereo not drawn) [Compound I-0175, 2-(7-(3-oxa-9-azaspiro[5.5]undecane-9-carbonyl)-2H-indazol-2-yl)-N-hydroxy-3-phenylpropanamide]
≤ 50	Cn1nccc1-c1nccc2cn(C(Cc3ccccc3)C(=O)NO)nc12 (stereo not drawn) [Compound I-0199, N-hydroxy-2-(7-(1-methyl-1H-pyrazol-5-yl)-2H-pyrazolo[3,4-c]pyridin-2-yl)-3-phenylpropanamide]
≤ 50	O=C(NO)C(Cc1ccccc1)n1nc2c(-c3ccncc3)cccc2c1C#CC1CC1 (stereo not drawn) [Compound I-0154, 2-(3-(cyclopropylethynyl)-7-(pyridin-4-yl)-2H-indazol-2-yl)-N-hydroxy-3-phenylpropanamide]
200 to 500	O=C(NO)C(Cc1ccccc1)n1ccc2cc(Cl)cnc21 (stereo not drawn) [Compound I-0195, 2-(5-chloro-1H-pyrrolo[2,3-b]pyridin-1-yl)-N-hydroxy-3-phenylpropanamide]
50 to 200	O=C(NC1CCOCC1)c1cccc2cn(C(Cc3ccccc3)C(=O)NO)nc12 (stereo not drawn) [Compound I-0176, 2-(1-(hydroxyamino)-1-oxo-3-phenylpropan-2-yl)-N-(tetrahydro-2H-pyran-4-yl)-2H-indazole-7-carboxamide]
200 to 500	CN1CCN(c2ccc(-c3ccn4c(C(Cc5ccccc5)C(=O)NO)cnc4c3)cn2)CC1 (stereo not drawn) [Compound I-0152, N-hydroxy-2-(7-(6-(4-methylpiperazin-1-yl)pyridin-3-yl)imidazo[1,2-a]pyridin-3-yl)-3-phenylpropanamide]
> 500	O=C(NO)C(Cc1ccccc1)n1cc2cccc(CNCC3CC3)c2n1 (stereo not drawn) [Compound I-0181, 2-(7-((cyclopropylmethylamino)methyl)-2H-indazol-2-yl)-N-hydroxy-3-phenylpropanamide]
200 to 500	O=C(NO)C(Cc1ccccc1)n1cc2cccc(CN3CCCC(F)(F)C3)c2n1 (stereo not drawn) [Compound I-0190, 2-(7-((3,3-difluoropiperidin-1-yl)methyl)-2H-indazol-2-yl)-N-hydroxy-3-phenylpropanamide]
≤ 50	O=C(NCCC1CCOCC1)c1cccc2c(C#CC3CC3)n(C(Cc3ccccc3)C(=O)NO)nc12 (stereo not drawn) [Compound I-0197, 2-[1-Benzyl-2-(hydroxyamino)-2-oxethyl]-3-(cyclopropylethynyl)-N-[2-(tetrahydro-2H-pyran-4-yl)ethyl]-2H-indazole-7-carboxamide]

Second part, the molecule before the results:

Compound	IC50 [nM]
Cc1cccc2c1cnn2C(Cc1ccccc1)C(=O)NO (stereo not drawn) [Compound I-0084, N-hydroxy-2-(4-methyl-1H-indazol-1-yl)-3-phenylpropanamide]	> 500
NC(=O)c1cccc(-c2cnc3c(cnn3C(Cc3ccccc3)C(=O)NO)c2)c1 (stereo not drawn) [Compound I-0131, 3-(1-(1-(hydroxyamino)-1-oxo-3-phenylpropan-2-yl)-1H-pyrazolo[3,4-b]pyridin-5-yl)benzamide]	200 to 500
N#Cc1cccc(-c2cnc3c(cnn3C(Cc3ccccc3)C(=O)NO)c2)c1 (stereo not drawn) [Compound I-0130, 2-(5-(3-cyanophenyl)-1H-pyrazolo[3,4-b]pyridin-1-yl)-N-hydroxy-3-phenylpropanamide]	> 500
O=C(NO)C(Cc1ccccc1)n1cc2ccc(F)cc2n1 (stereo not drawn) [Compound I-0037, 2-(6-fluoro-2H-indazol-2-yl)-N-hydroxy-3-phenylpropanamide]	> 500
O=C(NO)C(Cc1ccccc1)n1ncc2cc(C3CC3)ncc21 (stereo not drawn) [Compound I-0098, 2-(5-cyclopropyl-1H-pyrazolo[3,4-c]pyridin-1-yl)-N-hydroxy-3-phenylpropanamide]	> 500
O=C(NO)C(Cc1ccccc1)n1cc2cccc(C#CC3CC3)c2n1 (stereo not drawn) [Compound I-0082, 2-(7-(Cyclopropylethynyl)-2H-indazol-2-yl)-N-hydroxy-3-phenylpropanamide]	200 to 500
O=C(NO)C(Cc1ccccc1)n1ncc2ccccc21 (stereo not drawn) [Compound I-0102, N-hydroxy-2-(1H-indazol-1-yl)-3-phenylpropanamide]	> 500
O=C(NO)C(Cc1ccccc1)n1cc2ccc(N3CCCCC3)cc2n1 (stereo not drawn) [Compound I-0052, N-hydroxy-3-phenyl-2-(6-(piperidin-1-yl)-2H-indazol-2-yl)propanamide]	> 500
CCc1ccc2cnn(C(Cc3ccccc3)C(=O)NO)c2c1 (stereo not drawn) [Compound I-0018, 2-(6-Ethyl-1H-indazol-1-yl)-N-hydroxy-3-phenylpropanamide]	200 to 500
Cc1cccc2nn(C(Cc3ccccc3)C(=O)NO)cc12 (stereo not drawn) [Compound I-0064, N-hydroxy-2-(4-methyl-2H-indazol-2-yl)-3-phenylpropanamide]	> 500
O=C(NO)C(Cc1ccccc1)n1ncc2ccc(Br)cc21 (stereo not drawn) [Compound I-0021, 2-(6-bromo-1H-indazol-1-yl)-N-hydroxy-3-phenylpropanamide]	> 500
Cc1cc2cn(C(Cc3ccccc3)C(=O)NO)nc2cc1Br (stereo not drawn) [Compound I-0039, 2-(6-bromo-5-methyl-2H-indazol-2-yl)-N-hydroxy-3-phenylpropanamide]	> 500
Cc1ccc2nn(C(Cc3ccccc3)C(=O)NO)c(C#CC3CC3)c2c1 (stereo not drawn) [Compound I-0032, 2-(3-(cyclopropylethynyl)-5-methyl-2H-indazol-2-yl)-N-hydroxy-3-phenylpropanamide]	≤ 50
Cn1nccc1-c1nccc2c1cnn2C(Cc1ccccc1)C(=O)NO (stereo not drawn) [Compound I-0069, N-hydroxy-2-(4-(1-methyl-1H-pyrazol-5-yl)-1H-pyrazolo[4,3-c]pyridin-1-yl)-3-phenylpropanamide]	50 to 200
CC(=O)N1CCN(c2cncc(-c3ccc4cnn(C(Cc5ccccc5)C(=O)NO)c4c3)c2)CC1 (stereo not drawn) [Compound I-0144, 2-(6-(5-(4-acetylpiperazin-1-yl)pyridin-3-yl)-1H-indazol-1-yl)-N-hydroxy-3-phenylpropanamide]	50 to 200
O=C(NO)C(Cc1ccccc1)n1cc2ccnc(Cl)c2n1 (stereo not drawn) [Compound I-0129, 2-(7-chloro-2H-pyrazolo[3,4-c]pyridin-2-yl)-N-hydroxy-3-phenylpropanamide]	200 to 500
O=C(NO)C(Cc1ccccc1)n1ncc2cc(Br)ccc21 (stereo not drawn) [Compound I-0017, 2-(5-bromo-1H-indazol-1-yl)-N-hydroxy-3-phenylpropanamide]	50 to 200
O=C(NO)C(Cc1ccccc1)n1ncc2ccc(-c3cncnc3)cc21 (stereo not drawn) [Compound I-0023, N-hydroxy-3-phenyl-2-(6-(pyrimidin-5-yl)-1H-indazol-1-yl)propanamide]	> 500
CN1CCC(c2cccc3nn(C(Cc4ccccc4)C(=O)NO)cc23)CC1 (stereo not drawn) [Compound I-0065, N-hydroxy-2-(4-(1-methylpiperidin-4-yl)-2H-indazol-2-yl)-3-phenylpropanamide]	> 500
O=C(NO)C(Cc1ccccc1)n1cc2cccc(-c3ccccc3)c2n1 (stereo not drawn) [Compound I-0066, N-hydroxy-3-phenyl-2-(7-phenyl-2H-indazol-2-yl)propanamide]	> 500
O=C(NO)C(Cc1ccccc1)n1cc2c(-c3cncnc3)cccc2n1 (stereo not drawn) [Compound I-0063, N-hydroxy-3-phenyl-2-(4-(pyrimidin-5-yl)-2H-indazol-2-yl)propanamide]	200 to 500
COCc1ccc(-c2cccc3nn(C(Cc4ccccc4)C(=O)NO)cc23)cc1 (stereo not drawn) [Compound I-0147, N-hydroxy-2-(4-(4-(methoxymeth-yl)phenyl)-2H-indazol-2-yl)-3-phenylpropanamide]	200 to 500
O=C(NO)C(Cc1ccccc1)n1cc2cnccc2n1 (stereo not drawn) [Compound I-0043, N-hydroxy-3-phenyl-2-(2H-pyrazolo[4,3-c]pyridin-2-yl)propanamide]	> 500
Cn1nccc1-c1ccn2c(C(Cc3ccccc3)C(=O)NO)cnc2c1 (stereo not drawn) [Compound I-0115, N-hydroxy-2-(7-(1-methyl-1H-pyrazol-5-yl)imidazo[1,2-a]pyridin-3-yl)-3-phenylpropanamide]	200 to 500
Cn1nccc1-c1cccc2cn(C(Cc3ccccc3)C(=O)NO)nc12 (stereo not drawn) [Compound I-0067, N-hydroxy-2-(7-(1-methyl-1H-pyrazol-5-yl)-2H-indazol-2-yl)-3-phenylpropanamide]	50 to 200
Cc1ccc2c(cnn2C(Cc2ccccc2)C(=O)NO)c1 (stereo not drawn) [Compound I-0016, N-hydroxy-2-(5-methyl-1H-indazol-1-yl)-3-phenylpropanamide]	50 to 200
N#Cc1ccc(-c2cnc3c(cnn3C(Cc3ccccc3)C(=O)NO)c2)cc1 (stereo not drawn) [Compound I-0117, 2-(5-(4-cyanophenyl)-1H-pyrazolo[3,4-b]pyridin-1-yl)-N-hydroxy-3-phenylpropanamide]	> 500
O=C(NO)C(Cc1ccccc1)n1ncc2cc(-c3c(F)cccc3F)ccc21 (stereo not drawn) [Compound I-0014, 2-(5-(2,6-difluorophenyl)-1H-indazol-1-yl)-N-hydroxy-3-phenylpropanamide]	200 to 500
CN1CC=C(c2cccc3cn(C(Cc4ccccc4)C(=O)NO)nc23)CC1 (stereo not drawn) [Compound I-0101, N-hydroxy-2-(7-(1-methyl-1,2,3,6-tetrahydropyridin-4-yl)-2H-indazol-2-yl)-3-phenylpropanamide]	> 500

Source: patent publication US10723705B2, “Heterocyclic compounds and uses thereof” (Incyte Corporation, priority 2015, dated 2020)
